The assay has as its target T1, TXA2 receptors of human platelets (Homo sapiens, UniProt P21731).
T1 construct: Human platelets incubate in the presence of a single concentration; endogenous in cells; host or cells: human platelets
T1 sequence (P21731 1-343): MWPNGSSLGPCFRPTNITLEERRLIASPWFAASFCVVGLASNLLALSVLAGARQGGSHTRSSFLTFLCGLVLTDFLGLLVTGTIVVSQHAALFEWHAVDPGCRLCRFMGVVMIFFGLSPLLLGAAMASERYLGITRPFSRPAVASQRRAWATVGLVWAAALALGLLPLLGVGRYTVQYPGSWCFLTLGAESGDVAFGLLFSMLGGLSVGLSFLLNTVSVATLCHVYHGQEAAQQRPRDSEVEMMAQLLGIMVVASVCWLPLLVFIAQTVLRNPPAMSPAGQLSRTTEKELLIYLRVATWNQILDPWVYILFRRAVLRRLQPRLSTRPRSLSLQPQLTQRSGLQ
The assay can be described thus: displacement of radioligand [^125 I]PTA-OH specifically bound to the TXA2 receptors of human platelets. It counts as binding. To be noted: for inhibition at 10 µM / inhibition at 0.1 µM: 0.5 h, 30 minutes at 37° C; for inhibition at 10 µM: 1E-5 M competing agent, read-out: % displacement, Concentration 1E-5 M; for inhibition at 0.1 µM: 1E-7 M competing agent, read-out: % displacement, Concentration 1E-7 M; for Ki: determined according to the formula of CHENG and PRUSOFF, read-out: Ki (inhibition constant). The method, then: The affinity of the products of the Examples described for thromboxane A2 receptors is evaluated by the technique of displacing a radioligand specifically bound to the TXA2 receptors of human platelets. […] The reaction is completed by the addition of a buffer, followed by rapid filtration through […] filters. […] The results are expressed, for the doses tested, as the percentage displacement of the radioligand specifically bound to the TXA2 receptors of human platelets.

As a reminder, the Ki is a dissociation constant, usually derived from enzyme kinetics or from competition with a known ligand. As for `COc1ccc(Cn2c(CC(C)(C)CC(=O)O)nc3ccccc32)cc1` [Example 68, 4-[1-(4-Methoxybenzyl)benzimidazol-2-yl]-3,3-dimethybutanoic acid], the inhibition at 10 µM is 100%, the inhibition at 0.1 µM worked out at 89% and the Ki was found to be 31 nM.
`O=C(O)CC1(Cc2nc3cc(F)ccc3n2Cc2ccc(Cl)cc2)CC1` [Example 150, [1-[1-(4-Chlorobenzyl)-5-fluorobenzimidazol-2-yl]methylcycloprop-1-yl]acetic acid]: the inhibition at 10 µM is 98% and the inhibition at 0.1 µM stood at 80%.
Take `CSc1ccc(Cn2c(CC(C)(C)CC(=O)O)nc3cc(F)ccc32)cc1` [Example 96, 4-[1-(4-Methylthiobenzyl)-5-fluorobenzimidazol-2-yl]-3,3-dimethylbutanoic acid]: the inhibition at 10 µM turned out to be 100%, the inhibition at 0.1 µM is 100% and the Ki was 5 nM.
Turning to `CC(C)(CC(=O)O)Cc1nc2ccccc2n1Cc1ccc(Cl)cc1` [Example 77, 4-[1-(4-Chlorobenzyl)benzimidazol-2-yl]-3,3-dimethylbutanoic acid], the inhibition at 10 µM came to 100%, the inhibition at 0.1 µM was found to be 85% and the Ki is 31 nM.
As to `CC(C)(CC(=O)O)Cc1nc2cc(Cl)ccc2n1Cc1ccc2ccccc2c1` [Example 143, 4-[1-(Naphth-2-ylmethyl)-5-chlorobenzimidazol-2-yl]-3,3-dimethylbutanoic acid], the inhibition at 10 µM turned out to be 89% and the inhibition at 0.1 µM was 77%.
Turning to `O=C(O)CCCSc1nc2ccccc2n1Cc1ccc(Cl)cc1Cl` [Example 64, 4-[1 (2,4-Dichlorobenzyl)benzimidazol-2-yl]mercaptobutanoic acid], the inhibition at 10 µM stood at 97% and the inhibition at 0.1 µM turned out to be 34%.
The corresponding values for `CC(C)(CC(=O)O)Cc1nc2ccccc2n1Cc1cccc(C(F)(F)F)c1` [Example 71, 4-[1-(3-Trifluoromethylbenzyl)benzimidazol-2-yl]-3,3-dimethylbutanoic acid] are 100% and 49%.
Turning to `CC(C)(CC(=O)O)Cc1nc2ccccc2n1Cc1ccc(O)cc1` [Example 87, 4-[1-(4-Hydroxybenzyl)benzimidazol-2-yl]-3,3-dimethylbutanoic acid], the inhibition at 10 µM stood at 96% and the inhibition at 0.1 µM was determined as 50%.
Regarding `O=C(O)[C@@H]1CC[C@H]1c1nc2cc(F)ccc2n1Cc1ccc(Cl)cc1` (relative stereo) [Example 90, Trans-2-[1 (4-chlorobenzyl)-5-fluorobenzimidazol-2-yl]cyclobutane-1 carboxylic acid], the inhibition at 10 µM came to 97%, the inhibition at 0.1 µM came out at 2% and the Ki is 1180 nM.
For the compound `CC(C)(CC(=O)O)Cc1nc2ccccc2n1Cc1ccc(F)cc1` [Example 67], the inhibition at 10 µM turned out to be 100% and the inhibition at 0.1 µM amounted to 66%.
For `CC(C)(CC(=O)O)Cc1nc2cc(Br)ccc2n1Cc1ccc(Cl)cc1` [Example 127, 4-[1 (4-Chlorobenzyl)-5-bromobenzimidazol-2-yl]-3,3-dimethylbutanoic acid], the inhibition at 10 µM amounted to 67% and the inhibition at 0.1 µM amounted to 38%.
Consider `COc1ccc(Cn2c(CC(C)(C)CC(=O)O)nc3cc(F)ccc32)cc1` [Example 131, 4-[1-(4-Methoxybenzyl)-5 fluorobenzimidazol-2-yl]-3,3-dimethylbutanoic acid], for which the inhibition at 10 µM turned out to be 100% and the inhibition at 0.1 µM was determined as 79%.
Regarding `CC(C)(CC(=O)O)Cc1nc2ccccc2n1Cc1ccc(Br)cc1` [Example 69, 4-[1-(4 Bromobenzyl)benzimidazol-2-yl]-3,3-dimethylbutanoic acid], the inhibition at 10 µM stood at 96%, the inhibition at 0.1 µM is 86% and the Ki came out at 15.8 nM.
In the case of `CC(C)(CC(=O)O)Cc1nc2cc(Cl)c(Cl)cc2n1Cc1ccc(Cl)cc1` [Example 70, 4-[1-(4-Chlorobenzyl)-5,6-dichlorobenzimidazol-2-yl]-3,3-dimethylbutanoic acid], the inhibition at 10 µM stood at 100% and the inhibition at 0.1 µM amounted to 14%.
The corresponding values for `CCC(C)(CC(=O)O)Cc1nc2ccccc2n1Cc1ccc(Cl)cc1` (stereo not shown) [Example 75, 4-[1-(4-Chlorobenzyl)benzimidazol-2-yl]-3-methyl-3-ethylbutanoic acid] are 100% and 57%.
The corresponding values for `CC(C)(CC(=O)O)Cc1nc2ccccc2n1Cc1ccc2ccccc2c1` [Example 84, 4-[1-(Naphth-2-ylmethyl)benzimidazol-2-yl]-3,3-dimethylbutanoic acid] are 98% and 85%.
In the same order, the values of `O=C(O)[C@@H]1CCC[C@H]1c1nc2cc(F)ccc2n1Cc1ccc(Cl)cc1` (relative stereo) [Example 153, Trans 2-[1-(4-chlorobenzyl)-5-fluorobenzimidazol-2-yl]cyclopentane-1-carboxylic acid] are 100% and 37%.
With `O=C(O)CCCSc1nc2ccccc2n1Cc1ccc(Cl)cc1` [Example 63, 4-[1-(4-Chlorobenzyl)benzimidazol-2-yl]mercaptobutanoic acid], the inhibition at 10 µM is 97% and the inhibition at 0.1 µM was 37%.
With `CC(C)(CC(=O)O)Cc1nc2ccccc2n1Cc1ccc(Br)cc1F` [Example 76, 4-[1-(2-Fluoro-4-bromobenzyl)benzimidazol-2-yl]-3,3-dimethylbutanoic acid], the inhibition at 10 µM turned out to be 99%, the inhibition at 0.1 µM was 88% and the Ki came out at 11.4 nM.
As for `CC(C)(CC(=O)O)Cc1nc2cc(Cl)ccc2n1Cc1ccc(Br)cc1F` [Example 135, 4-[1-(2-Fluoro-4-bromobenzyl)-5-chlorobenzimidazol-2-yl]3,3-dimethylbutanoic acid], the inhibition at 10 µM amounted to 95% and the inhibition at 0.1 µM came to 74%.
For `CC(CC(=O)O)Cc1nc2ccccc2n1Cc1ccc(Cl)cc1` (stereo not shown) [Example 83, 4-[1-(4-Chlorobenzyl)benzimidazol-2-yl]-3-methylbutanoic acid], the inhibition at 10 µM amounted to 100% and the inhibition at 0.1 µM was 10%.
Take `CC(C)(CC(=O)O)Cc1nc2cc(Cl)ccc2n1Cc1ccc(Cl)cc1` [Example 79, 4-[1 (4-Chlorobenzyl)-5-chlorobenzimidazol-2-yl]-3,3-dimethylbutanoic acid]: the inhibition at 10 µM was 99%, the inhibition at 0.1 µM came out at 74% and the Ki amounted to 23.2 nM.
The corresponding values for `CC(C)(CC(=O)O)Cc1nc2cc(F)ccc2n1Cc1ccc(Cl)c(Cl)c1` [Example 80, 4-[1-(3,4-Dichlorobenzyl)-5-fluorobenzimidazol-2-yl]-3,3-dimethylbutanoic acid] are 92%, 89% and 6.02 nM.
Turning to `CC(C)(CC(=O)O)Cc1nc2cc(F)ccc2n1Cc1ccc(Br)cc1` [Example 109, 4-[1-(4-Bromobenzyl)-5-fluorobenzimidazol-2-yl]-3,3-dimethylbutanoic acid], the inhibition at 10 µM worked out at 92% and the inhibition at 0.1 µM was 95%.
On to `O=C(O)CC1(Cc2nc3cc(F)ccc3n2Cc2ccc(Cl)cc2)CCCC1` [Example 72, [10[1-(4-Chlorobenzyl)-5-fluorobenzimidazol-2-yl]-methylcyclopent-1 yl]acetic acid], for which the inhibition at 10 µM was 100%, the inhibition at 0.1 µM stood at 71% and the inhibitory constant (Ki) is 42.3 nM.
On to `CC(C)(CC(=O)O)Cc1nc2cc(F)ccc2n1Cc1ccc2ccccc2c1` [Example 147, 4-[1(Naphth-2-ylmethyl)-5-fluorobenzimidazol-2-yl]-3,3-dimethylbutanoic acid], for which the inhibition at 10 µM amounted to 93% and the inhibition at 0.1 µM came to 91%.
In the same order, the values of `O=C(O)CCCSc1nc2cc(F)ccc2n1Cc1ccc(Cl)cc1` [Example 65, 4-[1-(4-Chlorobenzyl)-5 fluorobenzimidazol-2-yl]mercaptobutanoic acid] are 93% and 8%.
The corresponding values for `Cc1ccc(Cn2c(CC(C)(C)CC(=O)O)nc3ccccc32)cc1` [Example 66, 4-[1-(4-Methylbenzyl)benzimidazol-2-yl]-3,3-dimethylbutanoic acid] are 100% and 52%.
As for `CC(C)(CC(=O)O)Cc1nc2cc(F)ccc2n1Cc1ccc(S(C)(=O)=O)cc1` [Example 97, 4-[1-(4-Methylsulfonylbenzyl)-5-fluorobenzimidazol-2-yl]-3,3-dimethylbutanoic acid], the inhibition at 10 µM came out at 100%, the inhibition at 0.1 µM worked out at 100% and the Ki is 37 nM.
In the case of `C[S+]([O-])c1ccc(Cn2c(CC(C)(C)CC(=O)O)nc3cc(Cl)ccc32)cc1` (stereo not shown) [Example 118, 4-[1-(4-Methylsulfoxybenzyl)-5-chlorobenzimidazol-2-yl]-3,3-dimethylbutanoic acid], the inhibition at 10 µM is 92% and the inhibition at 0.1 µM was 54%.

For the origin of these results see patent US5128359A, “Benzimidazole and azabenzimidazole derivatives which are thromboxane receptor antagonists, their methods of preparation” (Laboratoires UPSA, priority 1990, dated 1992).
